# Test results from patent US20230143612A1 (Arbutus Biopharma Corporation, priority 2020, published 2023).
# Biological target: PD-L1 His protein / PD-1 Fc protein (Homo sapiens, UniProt Q9NZQ7)
# Assay: HTRF Assay (PD-1/PD-L1 interaction)
# Assay type: binding
# Conditions: PD-L1 His 6 nM, PD-1 Fc 6 nM
# Method in brief: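 Compounds tested from 20 μM down to 0.001 μM (3-fold) against 6 nM PD-L1 His and 6 nM PD-1 Fc, 15 min room temperature incubation. Detection after 1 h at room temperature with Tb cryptate anti-6HIS and XL665 anti-human IgG reagents (mixture at 0.35 nM and 6.7 nM), HTRF signal.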
# Sequence of PD-L1 His protein / PD-1 Fc protein (Q9NZQ7 19-238 limits assumed): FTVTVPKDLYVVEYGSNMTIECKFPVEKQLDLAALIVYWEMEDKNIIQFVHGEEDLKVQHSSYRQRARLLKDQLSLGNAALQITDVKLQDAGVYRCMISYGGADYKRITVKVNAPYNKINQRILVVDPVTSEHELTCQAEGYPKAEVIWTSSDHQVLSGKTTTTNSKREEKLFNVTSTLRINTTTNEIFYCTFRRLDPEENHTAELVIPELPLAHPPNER
row,Structure (SMILES),IC50 [nM]
1,"CNCCCOc1cc(C)c2nc(-c3cccc(-c4cccc(-c5cc(=O)n6cc(OCCCNC)cc(C)c6n5)c4Cl)c3Cl)cc(=O)n2c1 [Example 35, 2,2′-(2,2′-Dichloro-[1,1′-biphenyl]-3,3′-diyl)bis(9-methyl-7-(3-(methylamino)propoxy)-4H-pyrido[1,2-a]pyrimidin-4-one)]",350
2,"COc1nc(-c2cccc(-c3cccc(-c4ccn5c(=O)c(CNC[C@@H]6CCC(=O)N6)cnc5c4)c3C)c2Cl)cnc1CNC[C@@H]1CCC(=O)N1 [Example 36, 8-(2′-Chloro-3′-(6-methoxy-5-(((((S)-5-oxopyrrolidin-2-yl)methyl)amino)methyl)pyrazin-2-yl)-2-methyl-[1,1′-biphenyl]-3-yl)-3-(((((S)-5-oxopyrrolidin-2-yl)methyl)amino)methyl)-4H-pyrido[1,2-a]pyrimidin-4-one]",1.5
3,"Cc1c(-c2ccn3c(=O)c(CNC[C@@H]4CCC(=O)N4)cnc3c2)cccc1-c1cccc(-c2ccn3c(=O)c(CNC[C@@H]4CCC(=O)N4)cnc3c2)c1C [Example 37, 8,8′-(2,2′-Dimethyl-[1,1′-biphenyl]-3,3′-diyl)bis(3-(((((S)-5-oxopyrrolidin-2-yl)methyl)amino)methyl)-4H-pyrido[1,2-a]pyrimidin-4-one)]",140
4,"COc1nc(-c2cccc(-c3cccc(-c4cnc(NCCNC(C)=O)c(OC)n4)c3Cl)c2Cl)cnc1NCCNC(C)=O [Example 38, N,N′-((((2,2′-Dichloro-[1,1′-biphenyl]-3,3′-diyl)bis(3-methoxypyrazine-5,2-diyl))bis(azanediyl))bis(ethane-2,1-diyl))diacetamide]",20
5,"COc1nc(NCCNC(C)=O)cnc1-c1cccc(-c2cccc(-c3ncc(NCCNC(C)=O)nc3OC)c2Cl)c1Cl [Example 39, N,N′-((((2,2′-Dichloro-[1,1′-biphenyl]-3,3′-diyl)bis(6-methoxypyrazine-5,2-diyl))bis(azanediyl))bis(ethane-2,1-diyl))diacetamide]",1000
6,"CN1CCC(NC[C@@H]2CCC(=O)N2)c2ccc(-c3cccc(-c4cccc(-c5ccc6c(n5)N(C)CCC6NC[C@@H]5CCC(=O)N5)c4Cl)c3Cl)nc21 (stereo partly drawn) [Example 42, (5S,5'S)-5,5′-((((2,2′-Dichloro-[1,1′-biphenyl]-3,3′-diyl)bis(1-methyl-1,2,3,4-tetrahydro-1,8-naphthyridine-7,4-diyl))bis(azanediyl))bis(methylene))bis(pyrrolidin-2-one)]",2.3
7,"O=C1CC[C@@H](CNC2COc3nc(-c4cccc(-c5cccc(-c6ccc7c(n6)OCC7NC[C@@H]6CCC(=O)N6)c5Cl)c4Cl)ccc32)N1 (stereo partly drawn) [Example 44, (5S,5'S)-5,5′-((((2,2′-Dichloro-[1,1′-biphenyl]-3,3′-diyl)bis(2,3-dihydrofuro[2,3-b]pyridine-6,3-diyl))bis(azanediyl))bis(methylene))bis(pyrrolidin-2-one)]",550
8,"COc1nc(-c2cccc(-c3cccc(-c4ccn5c(=O)c(CNC[C@@H]6CCC(=O)N6)cnc5c4)c3Cl)c2Cl)cnc1CNC[C@@H]1CCC(=O)N1 [Example 47, 8-(2,2′-Dichloro-3′-(6-methoxy-5-(((((S)-5-oxopyrrolidin-2-yl)methyl)amino)methyl)pyrazin-2-yl)-[1,1′-biphenyl]-3-yl)-3-(((((S)-5-oxopyrrolidin-2-yl)methyl)amino)methyl)-4H-pyrido[1,2-a]pyrimidin-4-one]",1.4
9,"O=C1CC[C@@H](CNCc2cnc3cc(-c4cccc(-c5cccc(-c6ccn7c(=O)c(CNC[C@@H]8CCC(=O)N8)cnc7c6)c5Cl)c4Cl)ccn3c2=O)N1 [Example 48, (S)-8,8′-(2,2′-Dichloro-[1,1′-biphenyl]-3,3′-diyl)bis(3-(((((S)-5-oxopyrrolidin-2-yl)methyl)amino)methyl)-4H-pyrido[1,2-a]pyrimidin-4-one)]",7
10,"COc1nc(-c2cccc(-c3cccc(-c4ccn5c(=O)c(CNC[C@@H]6CCC(=O)N6)ccc5c4)c3C)c2Cl)cnc1CNC[C@@H]1CCC(=O)N1 [Example 49, 8-(2′-Chloro-3′-(6-methoxy-5-(((((S)-5-oxopyrrolidin-2-yl)methyl)amino)methyl)pyrazin-2-yl)-2-methyl-[1,1′-biphenyl]-3-yl)-3-(((((S)-5-oxopyrrolidin-2-yl)methyl)amino)methyl)-4H-quinolizin-4-one]",6.3
11,"Cc1c(-c2ccn3c(=O)c(CNC[C@@H]4CCC(=O)N4)cnc3c2)cccc1-c1cccc(-c2ccc(CNC[C@@H]3CCC(=O)N3)c(Cl)n2)c1Cl [Example 50, 8-(2′-Chloro-3′-(6-chloro-5-(((((S)-5-oxopyrrolidin-2-yl)methyl)amino)methyl)pyridin-2-yl)-2-methyl-[1,1′-biphenyl]-3-yl)-3-(((((S)-5-oxopyrrolidin-2-yl)methyl)amino)methyl)-4H-pyrido[1,2-a]pyrimidin-4-one]",8.1
12,"COc1nc(-c2cccc(-c3cccc(-c4ccn5c(=O)c(CN(C)C[C@@H]6CCC(=O)N6)cnc5c4)c3C)c2Cl)ccc1CNC[C@@H]1CCC(=O)N1 [Example 54, 8-(2′-Chloro-3′-(6-methoxy-5-(((((S)-5-oxopyrrolidin-2-yl)methyl)amino)methyl)pyridin-2-yl)-2-methyl-[1,1′-biphenyl]-3-yl)-3-((methyl(((S)-5-oxopyrrolidin-2-yl)methyl)amino)methyl)-4H-pyrido[1,2-a]pyrimidin-4-one]",7
13,"COc1nc(-c2cccc(-c3cccc(-c4ccn5c(=O)c(CN(C)C[C@@H]6CCC(=O)N6)cnc5c4)c3C)c2Cl)ccc1CN1CC(O)C1 [Example 55, (S)-8-(2′-Chloro-3′-(5-((3-hydroxyazetidin-1-yl)methyl)-6-methoxypyridin-2-yl)-2-methyl-[1,1′-biphenyl]-3-yl)-3-((methyl((5-oxopyrrolidin-2-yl)methyl)amino)methyl)-4H-pyrido[1,2-a]pyrimidin-4-one]",43
14,"Cc1c(-c2ccn3c(=O)c(CNC[C@@H]4CCC(=O)N4)cnc3c2)cccc1-c1cccc(-c2ccc(CNC[C@@H]3CCC(=O)N3)c(F)n2)c1Cl [Example 57, 8-(2′-Chloro-3′-(6-fluoro-5-(((((S)-5-oxopyrrolidin-2-yl)methyl)amino)methyl)pyridin-2-yl)-2-methyl-[1,1′-biphenyl]-3-yl)-3-(((((S)-5-oxopyrrolidin-2-yl)methyl)amino)methyl)-4H-pyrido[1,2-a]pyrimidin-4-one]",3.1
15,"COc1nc(-c2cccc(-c3cccc(-c4cc(=O)n5cc(CNC[C@@H]6CCC(=O)N6)ccc5n4)c3Cl)c2Cl)cnc1CNC[C@@H]1CCC(=O)N1 [Example 58, 2-(2,2′-Dichloro-3′-(6-methoxy-5-(((((S)-5-oxopyrrolidin-2-yl)methyl)amino)methyl)pyrazin-2-yl)-[1,1′-biphenyl]-3-yl)-7-(((((S)-5-oxopyrrolidin-2-yl)methyl)amino)methyl)-4H-pyrido[1,2-a]pyrimidin-4-one]",2.2
16,"COc1nc(-c2cccc(-c3cccc(-c4cc(=O)n5cc(CNC[C@@H]6CCC(=O)N6)ccc5n4)c3Cl)c2Cl)ccc1CNC[C@@H]1CCC(=O)N1 [Example 59, 2-(2,2′-Dichloro-3′-(6-methoxy-5-(((((S)-5-oxopyrrolidin-2-yl)methyl)amino)methyl)pyridin-2-yl)-[1,1′-biphenyl]-3-yl)-7-(((((S)-5-oxopyrrolidin-2-yl)methyl)amino)methyl)-4H-pyrido[1,2-a]pyrimidin-4-one]",2.9
17,"O=C1CC[C@@H](CNCc2ccc3nc(-c4cccc(-c5cccc(-c6cc(=O)n7cc(CNC[C@@H]8CCC(=O)N8)ccc7n6)c5Cl)c4Cl)cc(=O)n3c2)N1 [Example 60, 2,2′-(2,2′-Dichloro-[1,1′-biphenyl]-3,3′-diyl)bis(7-(((((S)-5-oxopyrrolidin-2-yl)methyl)amino)methyl)-4H-pyrido[1,2-a]pyrimidin-4-one)]",460
18,"Cc1c(-c2ccn3c(=O)c(CNC[C@@H]4CCC(=O)N4)cnc3c2)cccc1-c1cccc(-c2ccc(CNC[C@@H]3CCC(=O)N3)cn2)c1Cl [Example 61, 8-(2′-Chloro-2-methyl-3′-(5-(((((S)-5-oxopyrrolidin-2-yl)methyl)amino)methyl)pyridin-2-yl)-[1,1′-biphenyl]-3-yl)-3-(((((S)-5-oxopyrrolidin-2-yl)methyl)amino)methyl)-4H-pyrido[1,2-a]pyrimidin-4-one]",16
19,"Cc1c(-c2ccn3c(=O)c(CNC4CNC(=O)C4)cnc3c2)cccc1-c1cccc(-c2ccc(CNC[C@@H]3CCC(=O)N3)c(F)n2)c1Cl (stereo partly drawn) [Example 62, 8-(2′-Chloro-3′-(6-fluoro-5-(((((S)-5-oxopyrrolidin-2-yl)methyl)amino)methyl)pyridin-2-yl)-2-methyl-[1,1′-biphenyl]-3-yl)-3-(((5-oxopyrrolidin-3-yl)amino)methyl)-4H-pyrido[1,2-a]pyrimidin-4-one]",19
20,"Cc1c(-c2ccn3c(=O)c(CNC[C@@H]4CCC(=O)N4)cnc3c2)cccc1-c1cccc(-c2ccc(CNC[C@@H]3CCC(=O)N3)c(N(C)C)n2)c1Cl [Example 64, 8-(2′-Chloro-3′-(6-(dimethylamino)-5-(((((S)-5-oxopyrrolidin-2-yl)methyl)amino)methyl)pyridin-2-yl)-2-methyl-[1,1′-biphenyl]-3-yl)-3-(((((S)-5-oxopyrrolidin-2-yl)methyl)amino)methyl)-4H-pyrido[1,2-a]pyrimidin-4-one]",37
21,"Cc1c(-c2ccn3c(=O)c(CNC[C@@H]4CCC(=O)N4)cnc3c2)cccc1-c1cccc(-c2ccc(CNC[C@@H]3CCC(=O)N3)cc2)c1Cl [Example 65, 8-(2′-Chloro-2-methyl-4″-(((((S)-5-oxopyrrolidin-2-yl)methyl)amino)methyl)-[1,1′:3′,1″-terphenyl]-3-yl)-3-(((((S)-5-oxopyrrolidin-2-yl)methyl)amino)methyl)-4H-pyrido[1,2-a]pyrimidin-4-one]",5.6
